Experimental findings from ChEMBL document CHEMBL3792324, “Discovery of KDM5A inhibitors: Homology modeling, virtual screening and structure-activity relationship analysis” (Bioorg Med Chem Lett, 2016) are described below.

Test [1] has as its target T1, Lysine-specific demethylase 5A (Homo sapiens, UniProt P29375). As to the kind of experiment: Inhibition of KDM5A (unknown origin) using substrate peptide/ascorbate/2-OG/ Fe(2) as substrate preincubated for 15 mins followed by addition of substrate peptide/ ascorbate/2-OG/ Fe(2) measured after 1 hr by AlphaLISA method. Background: Bead proximity is the source of the signal in Alpha formats.

Test [2] concerns the target T1, Lysine-specific demethylase 5A. Put plainly: Inhibition of KDM5A (unknown origin) using substrate peptide/ascorbate/2-OG/ Fe(2) as substrate at 10 uM preincubated for 15 mins followed by addition of substrate peptide/ ascorbate/2-OG/ Fe(2) measured after 1 hr by AlphaLISA method.
Test [3] deals with Probable JmjC domain-containing histone demethylation protein 2C (Homo sapiens, UniProt Q15652). As to the kind of experiment: Inhibition of KDM3C (unknown origin) using substrate peptide/ascorbate/2-OG/ Fe(2) as substrate preincubated for 15 mins followed by addition of substrate peptide/ ascorbate/2-OG/ Fe(2) measured after 1 hr by AlphaLISA method.
Test [4] has as its target T2, Lysine-specific demethylase 4E (Homo sapiens, UniProt B2RXH2).
T2 sequence (B2RXH2 whole entry): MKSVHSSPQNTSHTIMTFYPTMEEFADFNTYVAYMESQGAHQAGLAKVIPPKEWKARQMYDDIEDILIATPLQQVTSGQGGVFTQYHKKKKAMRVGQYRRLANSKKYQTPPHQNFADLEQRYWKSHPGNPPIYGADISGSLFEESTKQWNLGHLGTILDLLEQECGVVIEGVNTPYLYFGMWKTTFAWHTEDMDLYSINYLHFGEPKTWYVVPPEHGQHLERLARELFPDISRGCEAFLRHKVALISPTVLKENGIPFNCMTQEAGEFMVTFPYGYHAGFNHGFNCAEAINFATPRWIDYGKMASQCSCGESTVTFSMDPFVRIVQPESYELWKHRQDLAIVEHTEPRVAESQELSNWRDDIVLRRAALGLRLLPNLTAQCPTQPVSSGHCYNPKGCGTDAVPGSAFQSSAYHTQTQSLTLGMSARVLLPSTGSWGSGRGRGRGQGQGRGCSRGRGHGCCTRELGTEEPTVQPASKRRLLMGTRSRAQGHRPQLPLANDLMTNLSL
As to the kind of experiment: Inhibition of KDM4E (unknown origin) using substrate peptide/ascorbate/2-OG/ Fe(2) as substrate preincubated for 15 mins followed by addition of substrate peptide/ ascorbate/2-OG/ Fe(2) measured after 1 hr by AlphaLISA method.

Test [5] deals with T3, Lysine-specific demethylase 3A (Homo sapiens, UniProt Q9Y4C1).
T3 sequence (Q9Y4C1 whole entry): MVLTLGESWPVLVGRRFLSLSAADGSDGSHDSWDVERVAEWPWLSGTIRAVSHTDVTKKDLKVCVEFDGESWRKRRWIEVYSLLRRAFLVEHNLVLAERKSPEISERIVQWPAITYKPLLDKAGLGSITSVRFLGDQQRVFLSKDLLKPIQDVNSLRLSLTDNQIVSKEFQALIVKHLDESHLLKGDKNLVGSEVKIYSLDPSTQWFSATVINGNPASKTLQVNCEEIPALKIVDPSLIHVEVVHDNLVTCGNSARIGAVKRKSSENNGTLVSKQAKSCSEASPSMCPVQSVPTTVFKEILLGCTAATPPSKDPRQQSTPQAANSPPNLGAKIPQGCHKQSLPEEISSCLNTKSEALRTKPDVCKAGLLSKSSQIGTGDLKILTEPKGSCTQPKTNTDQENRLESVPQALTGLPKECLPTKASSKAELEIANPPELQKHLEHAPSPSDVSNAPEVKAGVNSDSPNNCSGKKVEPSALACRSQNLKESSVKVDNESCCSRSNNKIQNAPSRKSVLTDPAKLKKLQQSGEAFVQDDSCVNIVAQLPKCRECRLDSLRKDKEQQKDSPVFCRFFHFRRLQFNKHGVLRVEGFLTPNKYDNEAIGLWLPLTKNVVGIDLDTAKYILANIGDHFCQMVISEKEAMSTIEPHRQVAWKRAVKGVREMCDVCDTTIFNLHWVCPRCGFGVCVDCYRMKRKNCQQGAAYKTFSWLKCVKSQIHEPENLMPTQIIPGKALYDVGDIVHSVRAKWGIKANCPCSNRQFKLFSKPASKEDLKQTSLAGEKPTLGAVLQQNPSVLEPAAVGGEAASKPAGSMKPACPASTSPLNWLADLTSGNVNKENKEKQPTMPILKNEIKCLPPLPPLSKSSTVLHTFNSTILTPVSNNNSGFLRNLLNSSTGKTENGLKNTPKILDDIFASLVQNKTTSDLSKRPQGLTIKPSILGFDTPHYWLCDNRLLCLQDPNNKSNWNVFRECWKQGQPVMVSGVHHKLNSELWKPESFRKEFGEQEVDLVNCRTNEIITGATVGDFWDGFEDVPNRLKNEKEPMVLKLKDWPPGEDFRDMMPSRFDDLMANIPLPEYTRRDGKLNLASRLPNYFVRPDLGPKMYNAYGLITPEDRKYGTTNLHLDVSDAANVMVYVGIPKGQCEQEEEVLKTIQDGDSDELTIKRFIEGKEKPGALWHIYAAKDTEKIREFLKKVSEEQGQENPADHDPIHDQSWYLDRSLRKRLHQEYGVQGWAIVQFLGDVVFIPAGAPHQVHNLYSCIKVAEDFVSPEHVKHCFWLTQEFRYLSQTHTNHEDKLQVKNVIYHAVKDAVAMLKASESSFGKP
Put plainly: Inhibition of KDM3A (unknown origin) using substrate peptide/ascorbate/2-OG/ Fe(2) as substrate preincubated for 15 mins followed by addition of substrate peptide/ ascorbate/2-OG/ Fe(2) measured after 1 hr by AlphaLISA method.

Test [6] deals with Lysine-specific demethylase 6B (Homo sapiens, UniProt O15054). Put plainly: Inhibition of KDM6B (unknown origin) using substrate peptide/ascorbate/2-OG/ Fe(2) as substrate preincubated for 15 mins followed by addition of substrate peptide/ ascorbate/2-OG/ Fe(2) measured after 1 hr by AlphaLISA method.
Lysine-specific demethylase 6B, sequence (O15054 whole entry): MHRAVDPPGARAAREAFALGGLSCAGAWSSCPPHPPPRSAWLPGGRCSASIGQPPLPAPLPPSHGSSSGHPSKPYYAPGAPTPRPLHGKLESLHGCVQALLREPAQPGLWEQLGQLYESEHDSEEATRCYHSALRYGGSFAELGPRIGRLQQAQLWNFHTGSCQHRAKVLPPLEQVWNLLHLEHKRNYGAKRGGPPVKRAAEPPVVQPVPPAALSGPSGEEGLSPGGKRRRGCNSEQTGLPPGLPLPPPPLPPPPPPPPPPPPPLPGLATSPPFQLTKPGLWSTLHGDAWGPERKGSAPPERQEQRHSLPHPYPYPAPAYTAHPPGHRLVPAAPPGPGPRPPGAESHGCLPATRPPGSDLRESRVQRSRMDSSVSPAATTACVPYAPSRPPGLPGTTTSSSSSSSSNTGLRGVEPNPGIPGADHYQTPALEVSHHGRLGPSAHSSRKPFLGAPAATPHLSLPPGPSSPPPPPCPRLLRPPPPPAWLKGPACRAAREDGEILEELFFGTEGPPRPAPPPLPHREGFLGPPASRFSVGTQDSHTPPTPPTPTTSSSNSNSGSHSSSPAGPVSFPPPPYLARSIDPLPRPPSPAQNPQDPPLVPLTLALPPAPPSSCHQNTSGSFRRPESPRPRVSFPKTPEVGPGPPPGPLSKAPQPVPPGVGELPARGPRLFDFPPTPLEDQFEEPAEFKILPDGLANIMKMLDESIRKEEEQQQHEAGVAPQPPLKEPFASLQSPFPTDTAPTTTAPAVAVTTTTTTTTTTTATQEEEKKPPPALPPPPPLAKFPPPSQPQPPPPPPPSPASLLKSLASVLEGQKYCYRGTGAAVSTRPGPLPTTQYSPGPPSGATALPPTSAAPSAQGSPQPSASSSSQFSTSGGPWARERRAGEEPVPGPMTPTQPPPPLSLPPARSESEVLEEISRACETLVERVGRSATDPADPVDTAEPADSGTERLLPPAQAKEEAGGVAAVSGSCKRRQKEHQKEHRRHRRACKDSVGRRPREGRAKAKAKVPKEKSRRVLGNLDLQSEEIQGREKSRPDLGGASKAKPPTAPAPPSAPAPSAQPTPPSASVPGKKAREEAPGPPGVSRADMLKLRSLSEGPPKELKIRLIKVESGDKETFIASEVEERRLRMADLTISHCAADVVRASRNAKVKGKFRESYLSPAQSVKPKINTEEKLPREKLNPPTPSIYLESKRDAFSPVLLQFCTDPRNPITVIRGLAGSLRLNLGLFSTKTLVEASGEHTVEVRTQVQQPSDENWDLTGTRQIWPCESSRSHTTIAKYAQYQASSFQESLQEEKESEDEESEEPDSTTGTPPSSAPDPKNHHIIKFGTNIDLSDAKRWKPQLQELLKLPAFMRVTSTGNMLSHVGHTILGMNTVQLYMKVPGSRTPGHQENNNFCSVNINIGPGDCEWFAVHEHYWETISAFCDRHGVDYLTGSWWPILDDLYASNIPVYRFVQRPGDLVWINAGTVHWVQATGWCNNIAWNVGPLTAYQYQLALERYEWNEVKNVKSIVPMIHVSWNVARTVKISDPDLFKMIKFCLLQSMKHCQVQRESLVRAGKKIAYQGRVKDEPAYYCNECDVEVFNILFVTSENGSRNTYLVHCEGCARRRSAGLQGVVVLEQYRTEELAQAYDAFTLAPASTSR
The target in test [7] is Lysine-specific demethylase 5B (Homo sapiens, UniProt Q9UGL1). As to the kind of experiment: Inhibition of KDM5B (unknown origin) using substrate peptide/ascorbate/2-OG/ Fe(2) as substrate preincubated for 15 mins followed by addition of substrate peptide/ ascorbate/2-OG/ Fe(2) measured after 1 hr by AlphaLISA method.
Lysine-specific demethylase 5B, sequence (Q9UGL1 whole entry): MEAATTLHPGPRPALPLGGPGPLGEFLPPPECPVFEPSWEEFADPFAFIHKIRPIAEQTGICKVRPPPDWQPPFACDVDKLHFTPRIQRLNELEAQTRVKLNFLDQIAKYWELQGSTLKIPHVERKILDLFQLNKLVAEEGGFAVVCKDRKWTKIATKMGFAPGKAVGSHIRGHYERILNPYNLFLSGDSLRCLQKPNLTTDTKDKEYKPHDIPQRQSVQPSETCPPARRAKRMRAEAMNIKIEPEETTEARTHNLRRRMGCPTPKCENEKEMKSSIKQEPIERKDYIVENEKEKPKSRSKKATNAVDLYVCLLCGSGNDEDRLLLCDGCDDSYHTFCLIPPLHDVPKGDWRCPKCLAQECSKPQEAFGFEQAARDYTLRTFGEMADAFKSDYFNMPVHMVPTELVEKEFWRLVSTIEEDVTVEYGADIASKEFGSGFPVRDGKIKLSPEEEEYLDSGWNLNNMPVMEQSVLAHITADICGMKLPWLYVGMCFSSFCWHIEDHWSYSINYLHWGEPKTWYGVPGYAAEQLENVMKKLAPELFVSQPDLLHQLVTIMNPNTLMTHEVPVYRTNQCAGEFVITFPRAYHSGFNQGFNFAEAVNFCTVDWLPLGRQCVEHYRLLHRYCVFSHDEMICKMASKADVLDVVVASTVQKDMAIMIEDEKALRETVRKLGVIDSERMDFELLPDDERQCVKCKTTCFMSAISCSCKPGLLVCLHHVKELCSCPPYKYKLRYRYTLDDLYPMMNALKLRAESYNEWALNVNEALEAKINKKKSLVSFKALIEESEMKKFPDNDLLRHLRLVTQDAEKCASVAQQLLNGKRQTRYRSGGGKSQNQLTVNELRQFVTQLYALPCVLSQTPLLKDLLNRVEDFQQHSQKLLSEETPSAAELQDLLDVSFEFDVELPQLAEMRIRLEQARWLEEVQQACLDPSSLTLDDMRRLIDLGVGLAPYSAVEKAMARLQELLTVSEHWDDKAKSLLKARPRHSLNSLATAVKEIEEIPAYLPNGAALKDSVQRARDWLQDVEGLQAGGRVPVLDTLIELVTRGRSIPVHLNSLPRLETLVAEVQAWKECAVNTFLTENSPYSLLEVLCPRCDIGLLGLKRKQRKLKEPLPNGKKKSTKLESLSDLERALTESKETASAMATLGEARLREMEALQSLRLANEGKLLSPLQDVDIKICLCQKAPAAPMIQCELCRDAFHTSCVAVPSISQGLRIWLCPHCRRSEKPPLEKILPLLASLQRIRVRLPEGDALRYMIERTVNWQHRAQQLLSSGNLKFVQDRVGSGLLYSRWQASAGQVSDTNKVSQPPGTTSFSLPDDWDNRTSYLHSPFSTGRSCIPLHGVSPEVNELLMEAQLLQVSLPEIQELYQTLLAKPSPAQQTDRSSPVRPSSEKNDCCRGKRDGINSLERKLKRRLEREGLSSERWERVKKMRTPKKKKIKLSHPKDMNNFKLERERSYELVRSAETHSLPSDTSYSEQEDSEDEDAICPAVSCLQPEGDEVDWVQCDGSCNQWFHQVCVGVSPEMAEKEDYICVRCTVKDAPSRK
The target in test [8] is T1, Lysine-specific demethylase 5A. As to the kind of experiment: […] of KDM5A in human ZR-75-1 cells effect on H3K4me3 expression after 48 hrs by Western blot analysis. The test is classed as cell-based. (In western blotting, separated proteins are transferred to a membrane and probed.)

SMILES strings stand for the structures. Activity calls are given as the source filed them. No cut-off for these calls is given here. Bounds are passed on as bounds.

T1 sequence (P29375 whole entry): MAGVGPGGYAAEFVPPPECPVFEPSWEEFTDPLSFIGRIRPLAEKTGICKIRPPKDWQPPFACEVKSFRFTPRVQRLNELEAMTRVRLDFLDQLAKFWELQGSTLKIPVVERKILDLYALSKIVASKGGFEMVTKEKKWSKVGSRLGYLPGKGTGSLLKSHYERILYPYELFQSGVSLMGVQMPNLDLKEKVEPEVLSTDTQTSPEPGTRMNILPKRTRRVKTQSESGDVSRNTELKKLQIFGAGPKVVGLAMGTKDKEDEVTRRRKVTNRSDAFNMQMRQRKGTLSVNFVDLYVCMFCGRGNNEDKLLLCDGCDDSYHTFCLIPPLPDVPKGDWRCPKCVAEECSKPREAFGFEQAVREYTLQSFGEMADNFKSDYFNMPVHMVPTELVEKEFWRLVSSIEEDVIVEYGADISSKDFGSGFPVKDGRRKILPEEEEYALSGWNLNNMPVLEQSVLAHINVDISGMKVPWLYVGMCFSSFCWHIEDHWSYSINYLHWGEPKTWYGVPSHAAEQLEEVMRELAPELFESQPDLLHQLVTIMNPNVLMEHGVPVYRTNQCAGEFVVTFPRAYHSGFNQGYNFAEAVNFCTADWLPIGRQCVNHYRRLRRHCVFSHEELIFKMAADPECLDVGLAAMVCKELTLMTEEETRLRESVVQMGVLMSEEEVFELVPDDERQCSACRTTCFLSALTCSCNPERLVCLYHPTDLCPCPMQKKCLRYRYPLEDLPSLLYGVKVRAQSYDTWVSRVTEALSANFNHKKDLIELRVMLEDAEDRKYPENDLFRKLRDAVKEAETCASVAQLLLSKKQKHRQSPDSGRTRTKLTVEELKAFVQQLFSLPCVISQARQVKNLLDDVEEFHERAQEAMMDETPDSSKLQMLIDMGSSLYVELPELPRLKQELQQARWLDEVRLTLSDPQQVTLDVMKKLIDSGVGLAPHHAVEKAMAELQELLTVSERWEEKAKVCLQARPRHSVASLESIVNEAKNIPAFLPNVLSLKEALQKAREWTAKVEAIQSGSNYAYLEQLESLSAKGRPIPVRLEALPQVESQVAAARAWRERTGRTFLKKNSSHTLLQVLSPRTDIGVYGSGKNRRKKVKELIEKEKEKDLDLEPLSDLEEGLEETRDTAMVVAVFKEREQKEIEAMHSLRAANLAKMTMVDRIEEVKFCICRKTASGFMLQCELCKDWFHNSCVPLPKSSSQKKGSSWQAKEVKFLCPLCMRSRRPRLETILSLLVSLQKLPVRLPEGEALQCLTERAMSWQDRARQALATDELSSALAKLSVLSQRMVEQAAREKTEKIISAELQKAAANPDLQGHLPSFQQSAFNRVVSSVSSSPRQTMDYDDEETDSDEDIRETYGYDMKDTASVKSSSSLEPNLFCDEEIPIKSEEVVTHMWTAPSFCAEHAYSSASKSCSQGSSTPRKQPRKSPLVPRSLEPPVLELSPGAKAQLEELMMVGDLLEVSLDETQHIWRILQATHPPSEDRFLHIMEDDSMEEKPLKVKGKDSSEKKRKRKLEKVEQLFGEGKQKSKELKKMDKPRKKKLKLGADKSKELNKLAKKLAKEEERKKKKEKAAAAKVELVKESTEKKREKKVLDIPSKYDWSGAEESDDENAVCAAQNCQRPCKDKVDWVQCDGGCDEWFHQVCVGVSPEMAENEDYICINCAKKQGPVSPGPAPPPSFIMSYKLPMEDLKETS

In the case of `CCN(C1=C(Cl)C(=O)N(c2cccc(C)c2C)C1=O)c1ccccc1`, the IC50 in test [1] came out at 83 µM.
For `O=c1c2ccccc2oc2c(O)ccc(O)c12`, the IC50 in test [1] was found to be 25 µM.
Compound `O=C(NNc1c2ccccc2nc2ccccc12)c1ccccn1` displayed an IC50 in test [1] of 7 µM.
For `N#Cc1ccc(Nc2nc(NN)ncc2[N+](=O)[O-])cc1`, the inhibition in test [2] worked out at 14%.
Regarding `NNc1ncc(F)cn1`, the inhibition in test [2] turned out to be 10%.
Still for that read-out and setting: with `NNc1ncccn1` the figure was 8%.
Take `O=C(COc1cc(O)c2c(=O)cc(-c3ccccc3)oc2c1)OCc1ccccc1`: the IC50 in test [1] turned out to be 4.2 µM.
As for `Oc1ccccc1/C=N/Nc1ncc(Cl)cn1`, the inhibition in test [2] came to 19%.
In the case of `NNc1nccc(C(=O)O)n1`, the IC50 in test [1] is 0.22 µM; in test [3], 1.9 µM; in test [4], 13 µM; in test [5], 43 µM; in test [6] it was more than 100 µM; in test [7] it was more than 100 µM. Besides, the inhibition in test [2] was determined as 99%.
For `Cc1ccnc(N/N=C/c2ccccc2O)n1`, the inhibition in test [2] was 44%.
Regarding `Oc1ccccc1/C=N/Nc1ncc(F)cn1`, the outcome in test [8] was inactive.
As to `COc1ccc(Oc2ccnc(NN)n2)cc1`, the result in test [8] was inactive.
For the compound `NNc1nccc(Oc2ccc(F)cc2)n1`, the outcome in test [8] was inactive.
Turning to `NNc1nccc(C(F)(F)F)n1`, the result in test [8] was inactive.
As to `O=C(O)c1ccnc(N/N=C/c2ccccc2O)n1`, in test [2], the inhibition was 88%.
Take `O=C(O)c1ccnc(N/N=C/c2ccco2)n1`: the inhibition in test [2] turned out to be 3%.
Turning to `Oc1ccccc1/C=N/Nc1ncccn1`, the inhibition in test [2] stood at 32%.
For `NNc1ncc(F)c(N2CCOCC2)n1`, the inhibition in test [2] came out at 0%.
`Oc1ccccc1/C=N/Nc1ncc(F)c(N2CCOCC2)n1` showed an IC50 in test [1] of 2.3 µM. In addition, the inhibition in test [2] is 58%.
The compound `NNC(=O)c1ccc(O)cc1` gave a half-inhibitory concentration (IC50) in test [1] of 13 µM.
Regarding `NNc1nccc(N2CCOCC2)n1`, in test [8], the result was inactive.
Regarding `Oc1ccccc1/C=N/Nc1nccc(N2CCOCC2)n1`, in test [2], the inhibition was found to be 42%.
The compound `c1ccc(Cc2nnc3sc(-c4ccccn4)nn23)cc1` came in with an IC50 in test [1] of 25 µM.
`Cc1ccnc(NN)n1`: the inhibition in test [2] was -6%. In addition, the result in test [8] was inactive.
`O=C1c2ccccc2C(=O)c2c1ccc1c(=O)n(-c3ccc(Cl)cc3)[nH]c21` had an IC50 in test [1] of 13 µM.
`Cc1ccc(C(=O)c2coc3c2C(=O)C(=O)C(Br)=C3)cc1` gave a half-maximal inhibitory concentration (IC50) in test [1] of 5 µM.
Regarding `NNc1ncc(Cl)cn1`, the result in test [8] was inactive.
`O=C(O)c1ccnc(N/N=C/c2ccccc2)n1`: in test [2], the inhibition was found to be 0%.
Turning to `NNc1nccc(-c2cccc(C(=O)O)c2)n1`, in test [2], the inhibition amounted to 26%.
With `NNc1ncc2ccccc2n1`, the outcome in test [8] was inactive.
Take `CNc1ccccc(C(=O)/C=C/c2cccc(Oc3ccccc3)c2)c1=O`: the IC50 in test [1] was 64 µM.
Take `NNc1nccc(Oc2ccccc2)n1`: the outcome in test [8] was inactive.

In general, IC50 refers to the point on the concentration scale where inhibition reaches its midpoint. Read a low IC50 as inhibition by little substance. By inhibition is commonly meant the relative decrease from the control value, in per cent.
